From ChEMBL document CHEMBL1130201, “Antimalarial activity of molecules interfering with Plasmodium falciparum phospholipid metabolism. Structure-activity relationship analysis” (J Med Chem, 1997)

Tested on: Plasmodium falciparum
Assay: Inhibitory activity against Plasmodium falciparum
Format: functional, organism-based

| Molecule | IC50 (Plasmodium falciparum) | IC50 |
| --- | --- | --- |
| C[N+](C)(C)CCCCCC[N+](C)(C)C [HEXAMETHONIUM BROMIDE] | 700 µM | – |
| C[Se+](C)CCO | 420 µM | – |
| OC1CCCNC1 (stereo unspecified) | > 1000 µM | – |
| CCN(CC)CCO [DIETHYLAMINOETHANOL] | 400 µM | – |
| CN(C)CCCCCCN(C)C | 130 µM | – |
| NCCCCCO | > 2000 µM | – |
| C[N+](C)(C)CCCCCCCCCC[N+](C)(C)C [DECAMETHONIUM BROMIDE] | 1.7 µM | – |
| CN(C)CCO [DIMETHYLAMINOETHANOL] | 1300 µM | – |
| OCCN1CC1 | 50 µM | – |
| C[N+](C)(C)CCCCCCCCCCCC[N+](C)(C)C | 0.09 µM | – |
| CC(C)(N)CO [DEANOL] | 900 µM | – |
| CC(C)(C)CCO | > 2000 µM | – |
| NCCCO | 800 µM | – |
| CC(=O)OCC[N+](C)(C)C [ACETYLCHOLINE CHLORIDE] | > 8000 µM | – |
| NCCCCCN | 2000 µM | – |
| OC1CCNC1 (stereo unspecified) | > 1000 µM | – |

| Molecule | IC50 (Plasmodium falciparum) | IC50 |
| --- | --- | --- |
| C[N+](C)(C)CC(=O)O [BETAINE] | > 8000 µM | – |
| C[N+](C)(C)CCOP(=O)([O-])O | 1200 µM | – |
| CCCCCCCCCCCC[N+](C)(C)C | 0.5 µM | – |
| C[C@H]1O[C@@H](C[N+](C)(C)C)C[C@@H]1O | > 200 µM | – |
| CC[N+](C)(C)CCO | > 300 µM | – |
| CETRIMIDE | – | 0.9 µM |
| OCCNCCO [DIETHANOLAMINE] | 1100 µM | – |
| OCCN1CCN(CCO)CC1 | 1200 µM | – |
| C[N+]1(CCO)CCOCC1 | 4830 µM | – |
| CC[N+](CC)(CC)CC [TETRYLAMMONIUM BROMIDE] | 700 µM | – |
| CC[N+](CC)(CCO)CCCCC[N+](CC)(CC)CCO | 1260 µM | – |
| C[N+](C)(C)CCCl [CHLORMEQUAT CHLORIDE] | 200 µM | – |
| CC(O)CN (stereo unspecified) | 800 µM | – |
| CCCCCCCCCCCC[N+](C)(C)CCBr | 0.21 µM | – |
| C[N+](C)(C)C1CCCCC1O (stereo unspecified) | 700 µM | – |

Continued by falling IC50 (Plasmodium falciparum), values first:

| IC50 (Plasmodium falciparum) | IC50 | Molecule |
| --- | --- | --- |
| 650 µM | – | C[N+]1(CCCCC[N+]2(C)CCCC2)CCCC1 |
| 600 µM | – | CCC(N)(CO)CO |
| 500 µM | – | CN(C)CCOC(=O)COc1ccc(Cl)cc1 [MECLOFENOXATE] |
| 420 µM | – | OCCN1CCCC1 |
| 350 µM | – | OCCN1CCCCC1 |
| 300 µM | – | CC(N)CO (stereo unspecified) |
| 300 µM | – | CCCCCCC[N+](C)(C)C |
| 250 µM | – | CC(Cc1ccccc1)[N+](C)(C)CCO (stereo unspecified) |
| 230 µM | – | C[N+]1(CCO)CCCC1 |
| 200 µM | – | NCCS [CYSTEAMINE] |
| 120 µM | – | C[N+](C)(CCO)C1CCCCC1 |
| 112 µM | – | C[N+](C)(CCO)Cc1ccccc1 |
| 110 µM | – | C[N+](C)(CCO)CCc1ccccc1 |
| 81.3 µM | – | CCCCC[N+](C)(C)CCO |
| 80 µM | – | CCC(N)CO (stereo unspecified) |
| 50 µM | – | NC(CO)CO |
| 40 µM | – | OCCNCc1ccccc1 |
| 4 µM | – | C[N+](C)(CCO)CC(=O)c1ccc(-c2ccc(C(=O)C[N+](C)(C)CCO)cc2)cc1 |
| 2.1 µM | – | CCCCCCCCCCCCNCCOC |
| 2.1 µM | – | CCCCCCCCCCCCCCCCCC[N+](C)(C)C [TRIMETHYL-OCTADECYL-AMMONIUM CHLORIDE] |
| 2 µM | – | CC[N+](CC)(CCO)CCCCCCCCCC[N+](CC)(CC)CCO |
| 1.6 µM | – | CCCCCCCCC[N+](C)(C)C |
| 1.5 µM | – | CCCCCCCCCCCC[N+](CC)(CCO)CCCCCCCCCCCC |

| IC50 (Plasmodium falciparum) | IC50 | Molecule |
| --- | --- | --- |
| 1.3 µM | – | CCCCCCCCCCCCCCCCCC[N+](C)(C)CCO |
| 1.3 µM | – | CCCCCCCCCCCCN(C)CCO |
| 1 µM | – | CCCCCCCCCCCCCC[N+](C)(C)Cc1ccccc1 [MIRISTALKONIUM CHLORIDE] |
| 0.97 µM | – | CCCCCCCCCC[N+](C)(C)CCO |
| 0.84 µM | – | CCCCCCCCCCCC[N+](C)(CCO)CCCCCCCCCCCC |
| 0.7 µM | – | CCCCCCCCCC[N+](C)(C)C |
| 0.7 µM | – | CCCCCCCCCCCC[N+](C)(C)CCCCCCCCCCCC |
| 0.7 µM | – | CCCCCCCCCCCCCCCCCC[N+](C)(C)Cc1ccccc1 |
| 0.62 µM | – | CCCCCCCCCCCCCCCCCC[N+](CC)(CC)CCO |
| 0.61 µM | – | CCCCCCCCCCCCNC(CC)CO (stereo unspecified) |
| 0.6 µM | – | CCCCCCCCCCCCCC[N+](C)(C)CCO |
| 0.55 µM | – | CCCCCCCCCCCCCC[N+](CC)(CC)CCO |
| 0.51 µM | – | CCCCCCCCCCCCNCCO |
| 0.5 µM | – | CCCCCCCCCCC[N+](C)(C)C |
| 0.48 µM | – | CCCCCCCCCCCC[N+](C)(C)CCO |
| 0.34 µM | – | CCCCCCCCCCCC[N+](CC)(CC)CCO |
| 0.26 µM | – | CCCCCCCCCCCC[N+](C)(C)CCCC |
| 0.15 µM | – | C[N+]1(CCCCCCCCCC[N+]2(C)CCCC2)CCCC1 |
| 0.15 µM | – | CCCCCCCCCCCC[N+](C)(C)CCC |
| 0.11 µM | – | CCCCCCCCCCCC[N+](C)(C)CC |
| 0.064 µM | – | CCCCCCCCCCCC[N+](CC)(CC)CC |
| 0.033 µM | – | CCCCCCCCCCCC[N+](CCC)(CCC)CCC |
